Laboratory results from patent publication US20140294894A1 (priority 2007, published 2014).
Ends that are not written are not given here.

How the values were obtained:
tetanus toxin = test system: tetanus toxin; design: species or system mice; details: mouse, in vivo
TT = test system: TT; design: species or system mice; details: mouse, in vivo
splenocytes = format: cell-based, mice
Spleen cells = assay: Cytokine assay; format: cell-based, mice
[1] = Experiment 1, following restimulation

FCIGRL [AT1002]
protective antibody levels compared to immunization with TT alone (tetanus toxin): increased protective antibody levels | anti-tetanus IgG subclass titers (IgG1, IgG2a): shift toward a Th1 response (TT): No indication of a shift toward a Th1 response | anti-tetanus response (tetanus IgG titer) compared to tetanus toxoid alone (TT): significantly enhances the anti-tetanus response in a dose-dependent manner | anti-tetanus response (tetanus IgG titer), effect of higher dose (TT): does not increaser the anti-tetanus response | proliferation of spleen cells on restimulation with immunizing antigen (Stimulation Index) (splenocytes): induces the strongest cell proliferation response | IL-5 production compared to groups immunized with toxoid (TT) alone (Spleen cells; [1]): does not increase production | IL-10 production compared to groups immunized with toxoid (TT) alone (Spleen cells; [1]): does not increase production | IL-6 production by spleen cells compared to groups immunized with toxoid (TT) alone (Spleen cells; Experiment 1, restimulation with TT 0-100 μg/ml, FIG. 8A): does increase IL-6 production | IFN-γ production by spleen cells compared to groups immunized with toxoid (TT) alone (Spleen cells; Experiment 1, restimulation with TT 0-100 μg/ml, FIG. 8B): does not increase IFN-γ production | IL-6 production by spleen cells compared to groups immunized with toxoid (TT) alone (Spleen cells; Experiment 2, restimulation with TT 0-100 μg/ml, FIG. 14A): does increase IL-6 production
